Tests used:
[1] = tested on: HCT116 cells with (+/+) p21 genes; experiment: Apoptosis after drug treatment (phase contrast, H33258 staining, TUNEL), parental cells; format: cell-based, human; conditions: for cell fate (apoptosis) by phase contrast microscopy and H33258 staining: etoposide 5 ug/ml, camptothecan 0.1 ug/ml, time course
Protocol: (§1) HCT116 cells with (+/+) or without (−/−) p21 genes were generated by homologous recombination. Logarithmically-growing cells in McCoy's 5A medium with 10% fetal calf serum were treated with Adriamycin (0.2 ug/ml) for 90 hours. In FIG. 1b, the adherent cells were harvested by trypsinization and combined with cells floating in the media. After washing with Hanks Buffered Saline (HBS; Life Technologies), cells were resuspended in 40 ul HBS and added to 360 ul of a solution containing 0.7% NP-40, 4.7% formaldehyde and 11 ug/ml H133258 in phosphate buffered saline (PBS). Cells were then viewed under UV excitation and photographed with a Nikon Labophot microscope. In FIG. 1c, adherent cells were fixed in 1% formaldehyde, then incubated in the presence of exogenous terminal transferase and biotin-11-dUTP as previously described^7. Labeled cells were detected by immunoperoxidase staining (Vector).
(§2) Cells were grown, fixed, and stained as described in Example 1. Irradiation was delivered at 1 Gy/minute using a ^137Cs source. Apoptotic cells were recognized as condensed, punctate nuclei (examples in FIG. 1d) or ghosts with faintly stained, degrading nuclei. At least 200 cells were counted for each time point, and the experiment was repeated with results virtually identical to those shown. The error bars represent the Poisson standard deviation determined by taking the square root of counted events and converting it to percent abundance. All counting was done in a blinded fashion. The (+/−) cells contained one normal p21 allele and one allele deleted by homologous recombination^5.

[2] = tested on: HCT116 p21−/− cells; experiment: Cell cycle analysis by flow cytometry, p21-deficient cells; conditions: Adriamycin 0.2 ug/ml
[3] = tested on: HCT116 p21+/+ cells; experiment: Cell cycle analysis by flow cytometry, parental cells; conditions: Adriamycin 0.2 ug/ml
[4] = tested on: HCT116 (+/−) cells, one normal p21 allele and one deleted; experiment: Apoptosis after drug treatment, heterozygous cells; format: cell-based, human; conditions: Adriamycin 0.2 ug/ml, etoposide 5 ug/ml, camptothecan 0.1 ug/ml
Protocol: as §1, §2

[5] = tested on: HCT116 cells without (−/−) p21 genes; experiment: Apoptosis after drug treatment (phase contrast, H33258 staining, TUNEL), p21-deficient cells; format: cell-based, human
Protocol: as §1
as §2, with “At least 200 cells were counted for each time point, and the experiment was repeated with results virtually identical to those shown.” left out

[6] = longer treatments (beyond 30 hours)
[7] = p21−/− cells, Adriamycin 0.2 ug/ml, 90 hours

Row | SMILES | cell morphology, phase contrast microscopy ([1]; Adriamycin 0.2 ug/ml, 90 hours) | nuclear morphology after H33258 staining ([1]; Adriamycin 0.2 ug/ml, 90 hours) | cell cycle distribution by flow cytometry ([2]; 30 hours of exposure) | DNA content by flow cytometry [2, 6] | cell cycle distribution by flow cytometry ([3]; 30 hours of exposure) | flow cytometry profile [3, 6] | kinetics of apoptosis compared with parental cells [4] | response in a second, independently isolated p21−/− clone ([5]; Adriamycin 0.2 ug/ml, time course of apoptosis) | TUNEL staining of DNA breaks characteristic of apoptosis [5, 7] | cell morphology, phase contrast microscopy [5, 7] | nuclear morphology after H33258 staining [5, 7] | cell fate (apoptosis) by phase contrast microscopy and H33258 staining [1] | cell fate (apoptosis) by phase contrast microscopy and H33258 staining ([5]; p21−/− cells, etoposide 5 ug/ml, time course)
1 | COc1cccc2c1C(=O)c1c(O)c3c(c(O)c1C2=O)C[C@@](O)(C(=O)CO)C[C@@H]3O[C@H]1C[C@H](N)[C@H](O)[C@H](C)O1 [Adriamycin] | remained attached to the plate and appeared morphologically normal | homogeneous and round | a nearly pure population of G2-arrested cells was observed | began to accumulate DNA in excess of 4C, then died | blocked in G1 and G2 phases, with few cells in S | remained largely unchanged | behaved similarly to the parental cells | identical | stained intensely by TUNEL | shrank, rounded, and detached from the dish, suggesting apoptosis | classic condensed and punctate nuclear morphology | – | –
2 | COc1cc([C@@H]2c3cc4c(cc3[C@@H](O[C@@H]3O[C@@H]5CO[C@@H](C)O[C@H]5[C@H](O)[C@H]3O)[C@H]3COC(=O)[C@H]23)OCO4)cc(OC)c1O [etoposide] | – | – | – | – | – | – | behaved similarly to the parental cells | – | – | – | – | remained healthy | died
3 | CC[C@@]1(O)C(=O)OCc2c1cc1n(c2=O)Cc2cc3ccccc3nc2-1 [camptothecan] | – | – | – | – | – | – | revealed a heterozygote effect | – | – | – | – | eventually underwent apoptosis, but this was significantly delayed compared to p21-deficient cells | –

Source: patent publication US7148009B2, “Cancer drug screen based on cell cycle uncoupling” (The Johns Hopkins University, priority 1996, dated 2006)
